In ChEMBL document CHEMBL4699661, “Synthesis and Biological Characterization of Cyclic Disulfide-Containing Peptide Analogs of the Multifunctional Opioid/Neuropeptide FF Receptor Agonists That Produce Long-Lasting and Nontolerant Antinociception” (J Med Chem, 2020):
Activity calls are given as the source filed them. No cut-off for these calls is given here.

Columns and labels:
[1] = molecular target: Mu-type opioid receptor (Homo sapiens, UniProt P35372); experiment: Agonist activity at mu opioid receptor (unknown origin) expressed in HEK293-A cells assessed as inhibition of forskolin-stimulated cAMP accumulation incubated for 30 mins by competition PKA binding assay; format: functional, cell-based
[2] = molecular target: Kappa-type opioid receptor (Homo sapiens, UniProt P41145); experiment: Agonist activity at kappa opioid receptor (unknown origin) expressed in HEK293-A cells assessed as inhibition of forskolin-stimulated cAMP accumulation incubated for 30 mins by competition PKA binding assay; format: functional, cell-based; conditions: read-out: EC50
[3] = molecular target: T1, Delta-type opioid receptor (Homo sapiens, UniProt P41143); experiment: Agonist activity at delta opioid receptor (unknown origin) expressed in HEK293-A cells assessed as inhibition of forskolin-stimulated cAMP accumulation incubated for 30 mins by competition PKA binding assay; format: functional, cell-based
[4] = molecular target: T1, Delta-type opioid receptor; experiment: Agonist activity at delta opioid receptor (unknown origin) expressed in HEK293-A cells assessed as inhibition of forskolin-stimulated cAMP accumulation incubated for 30 mins by competition PKA binding assay relative to control; format: functional, cell-based; conditions: filed as agonist
[5] = molecular target: T2, Neuropeptide FF receptor 1 (Homo sapiens, UniProt Q9GZQ6); experiment: Agonist activity at NPFFR1 (unknown origin) expressed in HEK293-A cells assessed as inhibition of forskolin-stimulated cAMP accumulation incubated for 30 mins by competition PKA binding assay; format: functional, cell-based
[6] = molecular target: T2, Neuropeptide FF receptor 1; experiment: Agonist activity at NPFFR1 (unknown origin) expressed in HEK293-A cells assessed as inhibition of forskolin-stimulated cAMP accumulation incubated for 30 mins by competition PKA binding assay relative to control; format: functional, cell-based; conditions: filed as agonist
[7] = molecular target: T3, Neuropeptide FF receptor 2 (Homo sapiens, UniProt Q9Y5X5); experiment: Agonist activity at NPFFR2 (unknown origin) expressed in HEK293-A cells assessed as inhibition of forskolin-stimulated cAMP accumulation incubated for 30 mins by competition PKA binding assay; format: functional, cell-based
[8] = molecular target: T3, Neuropeptide FF receptor 2; experiment: Agonist activity at NPFFR2 (unknown origin) expressed in HEK293-A cells assessed as inhibition of forskolin-stimulated cAMP accumulation incubated for 30 mins by competition PKA binding assay relative to control; format: functional, cell-based; conditions: filed as agonist
[9] = Half life in 15% mouse brain at 0.01 mM by RP-HPLC analysis; format: ADME, tissue-based
[10] = Half life in 100% mouse plasma at 0.01 mM by RP-HPLC analysis; format: ADME, cell-free
[11] = tested on: Mus musculus; experiment: Analgesic activity in icv dosed Kunming mouse by radiant heat tail flick test; format: functional
[12] = tested on: Mus musculus; experiment: Analgesic activity in icv dosed Kunming mouse assessed as time duration during which supraspinal antinociception lasted by radiant heat tail flick test; format: functional
[13] = tested on: Mus musculus; experiment: Analgesic activity in Kunming mouse at 30 pmol, icv by radiant heat tail flick test; format: functional
[14] = tested on: Mus musculus; experiment: Analgesic activity in Kunming mouse assessed as increase in antinociceptive effect at 0.03 pmol, icv pre-treated with 10 nmol, icv NPFF receptor antagonist RF9 by radiant heat tail flick test; format: functional, organism-based
[15] = tested on: Mus musculus; experiment: Analgesic activity in sc dosed Kunming mouse by radiant heat tail flick test; format: functional
[16] = tested on: Mus musculus; experiment: Analgesic activity in sc dosed Kunming mouse assessed as time duration during which antinociception lasted by radiant heat tail flick test; format: functional
[17] = tested on: Mus musculus; experiment: Analgesic activity in Kunming mouse at 0.09 umol/kg, sc by radiant heat tail flick test; format: functional; conditions: dose 0.09 µmol/kg
[18] = tested on: Mus musculus; experiment: Analgesic activity in icv dosed Kunming mouse dosed once daily for 8 consecutive days by radiant heat tail flick test; format: functional, organism-based; conditions: time 8.0 day
[19] = tested on: Mus musculus; experiment: Analgesic activity in sc dosed Kunming mouse dosed once daily for 8 consecutive days by radiant heat tail flick test; format: functional, organism-based; conditions: time 8.0 day
[20] = Toxicity in Kunming mouse assessed as effect on motor coordination at 30 pmol, icv by rotarod test; conditions: in vivo, icv_or_intrathecal
[21] = Toxicity in Kunming mouse assessed as effect on motor coordination at 0.09 umol/kg, sc by rotarod test; format: organism-based; conditions: in vivo, dose 0.09 µmol/kg
[22] = Toxicity in Kunming mouse assessed as increase in total travelled distance at 0.09 umol/kg, sc by open field assay; format: organism-based; conditions: in vivo, dose 0.09 µmol/kg
[23] = Toxicity in Kunming mouse assessed as activation of reward circuits at 0.09 umol/kg, sc by CPP test; format: organism-based; conditions: in vivo, dose 0.09 µmol/kg
[24] = Toxicity in Kunming mouse assessed as increase in jumping counts after naloxone-injection at 0.09 umol/kg, sc by naloxone-precipitated withdrawal test; format: organism-based; conditions: in vivo, dose 0.09 µmol/kg
[25] = Induction of constipation in sc dosed Kunming mouse assessed as inhibition of gastrointestinal motility by charcoal based gastrointestinal motility test; format: organism-based; conditions: in vivo
[26] = Safety index, ratio of ED50 for induction of constipation in sc dosed Kunming mouse to ED50 for analgesic activity in sc dosed Kunming mouse; format: organism-based; conditions: in vivo, read-out: Ratio ED50
[27] = Drug level in Kunming mouse plasma at 1 mg/kg, iv after 5 to 240 mins by LC-MS/MS analysis; format: ADME, organism-based; conditions: time 5-240 min
[28] = Drug level in Kunming mouse brain at 1 mg/kg, iv after 5 to 240 mins by LC-MS/MS analysis; format: ADME, organism-based; conditions: in vivo, time 5-240 min
[29] = Ratio of drug level in brain to plasma in Kunming mouse brain at 1 mg/kg, iv after 5 to 240 mins by LC-MS/MS analysis; format: ADME, organism-based; conditions: time 5-240 min, read-out: BPR
[30] = tested on: Mus musculus; experiment: Analgesic activity in Kunming mouse at 30 pmol, icv pre-treated with 10 nmol, icv opioid receptor antagonist beta-funaltrexamine by radiant heat tail flick test; format: functional, organism-based
[31] = tested on: Mus musculus; experiment: Analgesic activity in Kunming mouse at 8.94 umol/kg, sc pre-treated with 1 mg/kg, sc opioid receptor antagonist naloxone by radiant heat tail flick test; format: functional, organism-based; conditions: dose 8.94 µmol/kg
[32] = tested on: Mus musculus; experiment: Analgesic activity in Kunming mouse at 8.94 umol/kg, sc pre-treated with 1 mg/kg, sc peripherally restricted opioid receptor antagonist naloxone methiodide by radiant heat tail flick test; format: functional, organism-based; conditions: dose 8.94 µmol/kg
[33] = tested on: Mus musculus; experiment: Analgesic activity in Kunming mouse at 8.94 umol/kg, sc pre-treated with 5 nmol, icv peripherally restricted opioid receptor antagonist naloxone methiodide by radiant heat tail flick test; format: functional, organism-based; conditions: dose 8.94 µmol/kg
[34] = tested on: Mus musculus; experiment: Analgesic activity in Kunming mouse at 2.68 umol/kg, sc pre-treated with 1 mg/kg, sc opioid receptor antagonist naloxone by radiant heat tail flick test; format: functional, organism-based; conditions: dose 2.68 µmol/kg
[35] = tested on: Mus musculus; experiment: Analgesic activity in Kunming mouse at 2.68 umol/kg, sc pre-treated with 1 mg/kg, sc peripherally restricted opioid receptor antagonist naloxone methiodide by radiant heat tail flick test; format: functional, organism-based; conditions: dose 2.68 µmol/kg
[36] = tested on: Mus musculus; experiment: Analgesic activity in Kunming mouse at 2.68 umol/kg, sc pre-treated with 5 nmol, icv peripherally restricted opioid receptor antagonist naloxone methiodide by radiant heat tail flick test; format: functional, organism-based; conditions: dose 2.68 µmol/kg
[37] = tested on: Mus musculus; experiment: Analgesic activity in NPFF2 -/- C57BL/6 mouse at 0.89 umol/kg, sc by radiant heat tail flick test relative to wild type mouse; format: functional, organism-based; conditions: dose 0.89 µmol/kg
[38] = tested on: Mus musculus; experiment: Analgesic activity in NPFF2 -/- C57BL/6 mouse at 0.09 umol/kg, sc by radiant heat tail flick test relative to wild type mouse; format: functional, organism-based; conditions: dose 0.09 µmol/kg

SMILES	EC50 [1] [nM]	EC50 [2] [nM]	EC50 [3] [nM]	Emax [4] [%]	EC50 [5] [nM]	Emax [6] [%]	EC50 [7] [nM]	Emax [8] [%]	half-life at 10 µM [9] [min]	half-life at 10 µM [10] [min]	ED50 [11] [pmol]	Activity [12]	Time [12] [h]	MPE [13] [%]	Activity [14]	Activity [15]	ED50 [15] [µmol/kg]	Time [16] [h]	Activity [17] [%]	Activity [19]	also measured
N=C(N)NCCC[C@H](NC(=O)[C@H](CCC(N)=O)NC(=O)[C@@H]1CCCN1C(=O)[C@H]1CSSC[C@@H](NC(=O)[C@@H](N)Cc2ccc(O)cc2)C(=O)NCC(=O)N[C@@H](Cc2ccccc2)C(=O)N1)C(=O)N[C@@H](Cc1ccccc1)C(N)=O	196	2460	200	63.6	361	75.6	192	74.6	255	14.6	0.001	Dose-dependent effect	3	90	Active	Dose-dependent effect	0.002	4	80	Active	Activity [18]: Active; Activity [20]: Non-Toxic; Activity [21]: Non-Toxic; Activity [22]: Non-Toxic; Activity [23]: Toxic; Activity [24]: Non-Toxic; Activity [25]: Dose-dependent effect; ED50 [25]: 0.07 µmol/kg; selectivity ratio [26]: 35
N=C(N)NCCC[C@H](NC(=O)[C@H](CCC(N)=O)NC(=O)[C@@H]1CCCN1C(=O)[C@@H]1CSSC[C@@H](NC(=O)[C@@H](N)Cc2ccc(O)cc2)C(=O)NCC(=O)N[C@@H](Cc2ccccc2)C(=O)N1)C(=O)N[C@@H](Cc1ccccc1)C(N)=O	43.1	866	174	65.1	7.5	75.9	19.2	53.3	173	53.6	0.014	Dose-dependent effect	3	90	Active	Dose-dependent effect	0.003	4	80	Active	AUC [27]: 63 ng·h/mL; Drug uptake [28]: 3.87 µg·min/g; Kp [29]: 1.02; Activity [30]: inactive; Activity [18]: Active; Activity [20]: Non-Toxic; Activity [21]: Non-Toxic; Activity [22]: Non-Toxic; Activity [23]: Non-Toxic; Activity [24]: Non-Toxic; Activity [25]: Dose-dependent effect; ED50 [25]: 2.25 µmol/kg; selectivity ratio [26]: 750
N=C(N)NCCC[C@H](NC(=O)[C@H](CCC(N)=O)NC(=O)[C@@H]1CCCN1C(=O)[C@H](CS)NC(=O)[C@H](Cc1ccccc1)NC(=O)CNC(=O)[C@@H](CS)NC(=O)[C@@H](N)Cc1ccc(O)cc1)C(=O)N[C@@H](Cc1ccccc1)C(N)=O	221	581	514	46.1	17.5	78.5	532	46.6		27.9	0.6		3		Active		0.13	3		Active	Activity [31]: inactive; Activity [32]: inactive; Activity [33]: Active; Activity [34]: inactive; Activity [35]: inactive; Activity [36]: Active; Activity [37]: Active; Activity [38]: Active
